# Reference: ChEMBL document CHEMBL3045271, “Synthesis and insecticidal activity of new phosphoramidates” (2012)
# What was measured:
# Type in all cases: functional
# [1] = tested on: Plutella xylostella; test: Insecticidal activity against second-instar larvae of Plutella xylostella (diamondback moth) assessed as mortality at compound administered topically at 1 ug/mg insect measured after 24 hr
# [2] = tested on: Diaphania hyalinata; test: Insecticidal activity against second-instar larvae of Diaphania hyalinata assessed as mortality at compound administered topically at 1 ug/mg insect measured after 24 hr
# [3] = tested on: Ascia monuste; test: Insecticidal activity against second-instar larvae of Ascia monuste assessed as mortality at compound administered topically at 1 ug/mg insect measured after 24 hr
# [4] = tested on: Diaphania hyalinata; test: Insecticidal activity against second-instar larvae of Diaphania hyalinata assessed as mortality at compound administered topically at 1 ug/mg insect measured after 72 hr
# [5] = tested on: Plutella xylostella; test: Insecticidal activity against second-instar larvae of Plutella xylostella (diamondback moth) assessed as mortality at compound administered topically at 1 ug/mg insect measured after 48 hr
# [6] = tested on: Ascia monuste; test: Insecticidal activity against second-instar larvae of Ascia monuste assessed as mortality at compound administered topically at 1 ug/mg insect measured after 48 hr
# [7] = tested on: Ascia monuste; test: Insecticidal activity against second-instar larvae of Ascia monuste assessed as mortality at compound administered topically at 1 ug/mg insect measured after 72 hr
# [8] = tested on: Plutella xylostella; test: Insecticidal activity against second-instar larvae of Plutella xylostella (diamondback moth) assessed as mortality at compound administered topically at 1 ug/mg insect measured after 72 hr
# [9] = tested on: Diaphania hyalinata; test: Insecticidal activity against second-instar larvae of Diaphania hyalinata assessed as mortality at compound administered topically at 1 ug/mg insect measured after 48 hr
SMILES,mortality [1],mortality [2],mortality [3],mortality [4],mortality [5],mortality [6],mortality [7],mortality [8],mortality [9]
CCN(CC)P(=O)(Oc1occc1Cc1ccc(Br)cc1)N(CC)CC,7.5%,27.5%,2.5%,35%,20%,5%,7.5%,32.5%,27.5%
Cc1ccc(CC2=CCOC2=O)cc1,12.5%,10%,5%,12.5%,17.5%,12.5%,17.5%,25%,10%
CCN(CC)P(=O)(Oc1occc1Cc1cccc(Cl)c1)N(CC)CC,5%,12.5%,0%,12.5%,22.5%,7.5%,12.5%,37.5%,12.5%
CCN(CC)P(=O)(Oc1occc1Cc1ccccc1Cl)N(CC)CC,20%,10%,5%,10%,32.5%,5%,5%,45%,10%
CCN(CC)P(=O)(Oc1occc1Cc1ccc(C)cc1)N(CC)CC,20%,25%,5%,30%,25%,15%,17.5%,32.5%,25%
CCN(CC)P(=O)(Oc1occc1Cc1cccc(C)c1)N(CC)CC,22.5%,15%,7.5%,15%,40%,12.5%,12.5%,45%,15%
O=P(Oc1ccco1)(N1CCCCC1)N1CCCCC1,5%,7.5%,70%,10%,10%,75%,75%,20%,7.5%
CCN(CC)P(=O)(Oc1ccco1)Oc1ccco1,17.5%,55%,62.5%,70%,20%,65%,67.5%,30%,55%
CCN(CC)P(=O)(Oc1occc1Cc1c(C)cccc1Cl)N(CC)CC,5.3%,20%,5%,20%,20%,15%,20%,37.5%,20%
O=P(NC1CCCCC1)(NC1CCCCC1)Oc1ccco1,2.5%,2.5%,70%,10%,7.5%,70%,70%,12.5%,2.5%
CCN(CC)P(=O)(Oc1occc1Cc1ccccc1F)N(CC)CC,12.5%,23.3%,22.5%,23.3%,22.5%,27.5%,32.5%,35%,23.3%
CCN(CC)P(=O)(Oc1occc1Cc1ccccc1)N(CC)CC,25%,5%,22.5%,5%,30%,27.5%,25%,45%,5%
O=P(Oc1ccco1)(Oc1ccco1)N1CCCCC1,5%,7.5%,87.5%,17.5%,5%,87.5%,90%,10%,7.5%
O=C1C=CCO1 [FURAN-2(5H)-ONE],27.5%,18.9%,12.5%,24.3%,27.5%,22.5%,25%,32.5%,18.9%
CCN(CC)P(=O)(Oc1ccco1)N(CC)CC,7.5%,22.5%,2.5%,25%,10%,10%,12.5%,22.5%,22.5%
COP(=S)(OC)Oc1nc(Cl)c(Cl)cc1Cl [CHLORPYRIFOS-METHYL],100%,100%,100%,100%,100%,100%,100%,100%,100%
CCN(CC)P(=O)(Oc1occc1Cc1cccc(Br)c1)N(CC)CC,27.5%,25%,2.5%,27.5%,32.5%,7.5%,10%,47.5%,25%
CCN(CC)P(=O)(Oc1occc1Cc1cccc(F)c1)N(CC)CC,30%,23.3%,5%,36.6%,42.5%,17.5%,15%,52.5%,23.3%
